Laboratory results as given in patent publication US20070082939A1, “Methods and compositions for the treatment of neuropathies and related disorders” (priority 2005, published 2007).
“Also recorded” adds a separate entry of the source. Where a name gives a salt, the structure may show the parent alone.

Key:
[1] = test system: acute inflammatory pain produced by injection of yeast extract into the rat paw; details: cited from earlier work
[2] = test system: spinal nerve ligation (Chung) model of neuropathic pain; experiment: Spinal nerve ligation (Chung) model, tactile stimulation with electronic Von Frey probe; assay type: in vivo, rats; details: for mechanical hyperalgesia: force required to induce paw withdrawal, lesioned paw / pain (pressure) threshold in the non-lesioned paw: rats; for mechanical hyperalgesia: force required to induce paw withdrawal, lesioned paw: p.o. at the indicated doses 60 minutes before the test; for pain (pressure) threshold in the non-lesioned paw: p.o., non-lesioned paw (Panel B); for mechanical hyperalgesia: force required to induce paw withdrawal, lesioned paw / effect on mechanical hyperalgesia compared with morphine: lesioned paw; for effect on mechanical hyperalgesia compared with morphine: morphine 128 mg/kg p.o., near lethal dose
Experimental: (§1) Tight ligature of spinal nerves in rats is associated with hyperalgesia, allodynia and spontaneous pain, and thereby provides an accepted model for peripheral neuropathic pain in humans. Male Sprague-Dawley rats Rj:SD (IOPS Han) weighing 218-260 g at the beginning of the procedure were anesthetized (sodium pentobarbital 40 mg/kg i.p.) and an incision at the L4-S2 level was performed to expose the left L5 and L6 spinal nerves, which were then tightly ligated (4-0 silk suture) distal to the dorsal root ganglion and prior to entrance into the sciatic nerve, as first described by Kim and Chung (Pain 50:355-363, 1992). The wound was then sutured, and the rats received an […]. injection of clamoxyl (100 mg/kg […].) and were allowed to recover. 4 weeks after surgery, when the chronic pain state was fully installed, rats were submitted consecutively to tactile and thermal stimulation of both the non-lesioned and the lesioned hindpaws.
For tactile stimulation, the animal was placed under an inverted acrylic plastic box (18×11.5×13 cm) on a grid floor. The tip of an electronic Von Frey probe (Bioseb, model 1610) was then applied with increasing force to the non-lesioned and lesioned hindpaws and the force inducing paw-withdrawal was automatically recorded. This procedure was carried out 3 times and the mean force per paw was calculated.
(§2) Behavioral testing was carried out 2 weeks after surgery. Prior to receiving drug treatment all animals were submitted to tactile stimulation and assigned to treatment groups matched on the basis of their pain response. 8 rats were studied per group, and the tests were performed blind.
(§3) Bicifadine was evaluated at the indicated doses, administered p.o. 60 minutes before the test, and compared with a vehicle control group. Morphine (128 mg/kg p.o.), used as a reference substance, was administered under the same experimental conditions.
(§4) Data were analyzed by comparing the responses of lesioned paws in the treatment groups with vehicle control group using paired and unpaired Student's t tests.
(§5) In the instant example, another exemplary, substituted 1-aryl-3-azabicyclo[3.1.0]hexane was evaluated for its ability to alleviate symptoms associated with neuropathy in the spinal nerve ligation (Chung) model of neuropathic pain. In this study, a multiply aryl-subsituted compound as described above, 1-(3,4-dichlorophenyl)-3-azabicyclo[3.1.0]hexane was assayed according to the procedures described above in Example 1. The 1-(3,4-dichlorophenyl)-3-azabicyclo[3.1.0]hexane was administered to test animals at the indicated doses p.o. 60 minutes before the test, and compared with a vehicle control group. Data were analyzed by comparing the responses of lesioned paws in the treatment groups with vehicle control group using paired and unpaired Student's t tests, as described in Example 1.

[3] = test system: spinal nerve ligation (Chung) model of neuropathic pain; experiment: Spinal nerve ligation (Chung) model, thermal stimulation (infrared radiant source); assay type: in vivo, rats; details: for thermal hyperalgesia: paw withdrawal latency, lesioned paw / response to application of heat in the non-lesioned paw: rats; for thermal hyperalgesia: paw withdrawal latency, lesioned paw: p.o. at the indicated doses 60 minutes before the test; for response to application of heat in the non-lesioned paw: p.o., non-lesioned paw (Panel B); for thermal hyperalgesia: paw withdrawal latency, lesioned paw / effect on thermal hyperalgesia compared with morphine: lesioned paw; for effect on thermal hyperalgesia compared with morphine: morphine 128 mg/kg PO, nearly lethal dose
Experimental: as §1
For thermal stimulation, the apparatus (Model 7200, Ugo Basile, Italy) consists of individual acrylic plastic boxes (17×11×13 cm) placed upon an elevated glass floor. A rat was placed in the box and left free to habituate for 10 minutes. A mobile infrared radiant source (96±10 mW/cm^2) was then focused under the non-lesioned and lesioned hindpaws and the paw-withdrawal latency was automatically recorded. In order to prevent tissue damage the heat source was automatically turned off after 45 seconds.
as §2, §3, §4, §5

[4] = test system: nociceptive pain following dental surgery; details: humans; cited from earlier work
[5] = test system: Streptozotocin (STZ)-induced diabetes rat model of neuropathy; experiment: Streptozotocin (STZ)-induced diabetes rat model, paw pressure test; assay type: in vivo, rats; details: 60 minutes after dosing; for mechanical hyperalgesia: nociceptive threshold (paw pressure): STZ diabetic rats, oral, vs vehicle-treated diabetic rats, hydrochloride
Experimental: Male Sprague Dawley rats Rj:SD (IOPS Han) weighing 218-260 g at the beginning of the experiment, were included in this study for the induction of diabetes. These were divided into vehicle control and streptozotocin treated groups. The rats were housed in a temperature (19.5-24.5° C.) and relative humidity (45-65%) controlled room with a 12-h light/dark cycle, with ad libitum access to filtered tap water and standard pelleted laboratory chow throughout the study.
On day 0, diabetes was induced by intraperitoneal injection of streptozotocin (STZ; 75 mg/kg) to the rats. On day 23, to confirm the presence of diabetes in the STZ-administered rats, hyperglycemia was measured using blood glucose strips. Animals with a blood sugar level lower than […] were not used in further investigations.
Animals found useful for inclusion in additional investigations were dosed orally with bicifadine at the indicated doses, and the nociceptive threshold tested sixty minutes later. The nociceptive threshold was evaluated using a mechanical nociceptive stimulus (paw pressure test). An increasing pressure was applied onto the hindpaw of the animal until the nociceptive response (vocalization or paw withdrawal) was reached. The pain threshold (grams of contact pressure) was measured in both hindpaws.
Results are expressed as the nociceptive threshold (mean±SEM) in grams of contact pressure for each group, calculated from individual nociceptive thresholds (mean values of the nociceptive thresholds obtained for both hindpaws). Statistical significance between the bicifadine treated groups and the vehicle-treated diabetic group was determined by a […], using the residual variance after a one-way analysis of variance (P<0.05).

[6] = morphine 128 mg/kg p.o. (nearly lethal dose), vs vehicle
[7] = listed as Bicfifadine, hydrochloride
[8] = vs vehicle, listed as bicifadine HCl, hydrochloride

SMILES: CC(=O)Oc1ccccc1C(=O)O [aspirin]
- activity in the Randall-Selitto test [1]: active

SMILES: CN1CC[C@]23c4c5ccc(O)c4O[C@H]2[C@@H](O)C=C[C@H]3[C@H]1C5 [morphine, reference compound]
- activity in the Randall-Selitto test [1]: active
- threshold for nociceptive response, mechanical pressure, lesioned paw [2, 6]: significant increase
- threshold for nociceptive response, thermal stimulus, lesioned paw [3, 6]: significant increase

SMILES: Clc1ccc(C23CNCC2C3)cc1Cl (centres unmarked) [1-(3,4-dichlorophenyl)-3-azabicyclo[3.1.0]hexane]
- mechanical hyperalgesia: force required to induce paw withdrawal, lesioned paw ([2]; vs vehicle): potently suppressed tactile allodynia; also recorded: significant increase in the force required to induce paw withdrawal; also recorded: suppresses mechanical hyperalgesia
- pain (pressure) threshold in the non-lesioned paw [2]: not due to debilitation of the animal; also recorded: no effect
- thermal hyperalgesia: paw withdrawal latency, lesioned paw ([3]; vs vehicle): dose-dependently suppressed thermal hyperalgesia; also recorded: significant increase in paw withdrawal latency; also recorded: suppresses thermal hyperalgesia
- response to application of heat in the non-lesioned paw [3]: not due to debilitation of the animal; also recorded: no effect

SMILES: Cc1ccc([C@]23CNC[C@H]2C3)cc1 (racemic) [bicifadine, (±)-1-(4-methylphenyl)-3-azabicyclo[3.1.0]hexane hydrochloride]
- relief of pain following dental surgery compared with codeine and tramadol [4]: as effective as codeine and tramadol
- nociceptive threshold (paw pressure) ([5]; 12.5 and 25 mg/kg oral, vs vehicle treated diabetic animals): significant (P<0.05) increase
- mechanical hyperalgesia: nociceptive threshold (paw pressure) [5]: reduces mechanical hyperalgesia; also recorded: effectively alleviates neuropathy symptoms (mechanical hyperalgesia)
- mechanical hyperalgesia: nociceptive threshold (paw pressure) ([5]; listed as Bicifadine): increased the amount of pressure an animal could withstand; also recorded: restore the amount of pressure tolerated in these diabetic rats to values approaching those obtained in control animals
- activity in the Randall-Selitto test [1]: potent and active
- force required to induce paw withdrawal, lesioned paw ([2]; 50 mg/kg PO, 60 minutes before the test, vs vehicle treated lesioned paws): significant increase
- effect on mechanical hyperalgesia compared with morphine ([2]; hydrochloride): more potent than morphine
- effect on mechanical hyperalgesia compared with morphine [2, 7]: as effective as a near lethal dose morphine
- mechanical hyperalgesia: force required to induce paw withdrawal, lesioned paw ([2]; vs vehicle, hydrochloride): statistically significant increase; also recorded: effectively suppressed
- mechanical hyperalgesia: force required to induce paw withdrawal, lesioned paw [2, 8]: suppresses mechanical hyperalgesia
- pain (pressure) threshold in the non-lesioned paw ([2]; hydrochloride): does not affect; also recorded: no effect
- paw withdrawal latency in response to a thermal stimulus, lesioned paw ([3]; all doses tested (12.5-100 mg/kg PO), vs vehicle): significant increase
- effect on thermal hyperalgesia compared with morphine ([3]; hydrochloride): approximately equivalent
- effect on thermal hyperalgesia compared with morphine [3, 7]: as effective as a near lethal dose morphine
- thermal hyperalgesia: paw withdrawal latency, lesioned paw ([3]; vs vehicle, hydrochloride): effectively suppressed
- thermal hyperalgesia: paw withdrawal latency, lesioned paw [3, 8]: suppresses thermal hyperalgesia
- response to application of heat in the non-lesioned paw ([3]; hydrochloride): does not affect; also recorded: no effect

SMILES: COc1ccc2c3c1O[C@H]1[C@@H](O)C=C[C@H]4[C@@H](C2)N(C)CC[C@@]341 [codeine]
- activity in the Randall-Selitto test [1]: active
